# Assay results as given in publication PMC8329197, “Compounds targeting OSBPL7 increase ABCA1-dependent cholesterol efflux preserving kidney function in two models of kidney disease” (Nature Communications, 2021).
# Where “and” joins values, the source holds several entries; their conditions need not be identical. Equal entries are not always repeated.
# Experiments:
# [1] = test system: Adriamycin (ADR)-induced nephropathy in Balb/c mice; assay: ADR nephropathy: immunofluorescence of glomerular ABCA1 and WT1+ podocyte number; type: in vivo, mouse; conditions: for Glomerular ABCA1 mean fluorescence intensity, mean / Number of Podocytes (WT1+ cells in glomeruli), mean / Glomerular ABCA1 mean fluorescence intensity / Number of Podocytes (WT1+ cells in glomeruli): ADR; for Glomerular ABCA1 mean fluorescence intensity, mean / Number of Podocytes (WT1+ cells in glomeruli), mean: group mean; for Glomerular ABCA1 mean fluorescence intensity / Number of Podocytes (WT1+ cells in glomeruli): individual mice
# Procedure: For the detection of ABCA1 expression, 4 μm paraffin kidney cortex sections were deparaffinized and rehydrated. Antigens were retrieved by boiling for 30 min in citrate buffer pH 6.0 (Target Retrieval Solution, Citrate pH 6, Sigma, USA). The sections were permeabilized for 30 min with 0.1% Triton X-100 in TBS. Tissue sections were incubated with 10% goat serum (cat # G9023, Millipore Sigma) and 1% BSA (cat # SP-5050-500, Vector, USA) in TBS-T for 1hr at room temperature to block any non-specific binding. Samples were then incubated overnight at 4 °C with Rat anti-ABCA1 (Novus, 1:200) and Rabbit anti-WT1 (Abcam, 1:200) antibodies in a humidified chamber. After washing extensively, samples were then incubated for 1 h at RT with fluorochrome-conjugated secondary antibodies (Invitrogen, 1:500). Antifade mounting media containing DAPI (Vectashield Plus) was added to the sections before being analyzed.
# Images were acquired using a FluoView FV1000 Confocal Microscope (Olympus) with a ×63 oil objective lens in different planes using a Z-series pattern with a step size of 0.18 μm. During analysis, individual planes were deconvoluted and stacked to produce a maximum projected image using fluview software version 4.3b (Olympus). A minimum of 5 images was captured from 5 different fields per sample. Quantification of ABCA1 glomerular mean fluorescence intensity (MFI) was done using Fiji—ImageJ software.
# [2] = test system: Adriamycin (ADR)-induced nephropathy in Balb/c mice; assay: Adriamycin-induced nephropathy, dose-finding pilot study: ACR and body weight time course; conditions: for ACR in pilot study: days 7-28; for Body Weight / ACR in spot urine: ADR, individual mice
# [3] = test system: Adriamycin (ADR)-induced nephropathy in Balb/c mice; assay: ADR nephropathy: kidney cortex lipids (cholesterol ester, total cholesterol, triglycerides, Oil-red O); type: in vivo, mouse
# Procedure: OCT embedded kidney cortex samples were cryosectioned at 4 μm thickness and stained with Oil-Red O-isopropanol solution (Electron Microscopy Science, PA) diluted 6:4 in water, and then counterstained with Hematoxylin Harris Hg Free (VWR, PA). Sections were then evaluated using a light microscope (Olympus BX 41, Tokyo, Japan).
# Snap frozen kidney cortex samples were homogenized in 2 mM potassium phosphate buffer, pH 7, (10 µl buffer/mg tissue) using a glass douncer on ice. 100 μl of the homogenate were mixed thoroughly with 1 ml of hexane:isopropanol (3:2;v:v) per volume of tissue homogenate. The aqueous (pellet) and organic (supernatant) phases were separated by centrifugation at 12,000 × g for 5 min. Pellets (aqueous phase) were dried, reconstituted in 8 M urea, 0.1% SDS, 0.1 M NaOH, and total proteins were quantified by the BCA method (Thermofisher). The organic phase was dried by exposure to nitrogen. Lipids were then reconstituted in 100 µl isopropanol:NP-40 (9:1;v:v). Triglyceride content was assayed using a colorimetric kit according to the manufacturer’s instructions (Cayman Chemical USA). Total cholesterol and CE content were assayed using an enzymatic fluorometric method. For total cholesterol measurement, extracts were diluted 1:100 in assay buffer (100 mM potassium phosphate, 50 mM NaCl, 5 mM cholic acid, 0.1% Triton […], pH 7.4) containing cholesterol oxidase (1 U/ml), cholesterol esterase (1 U/ml), horseradish peroxidase (1 U/ml), and Amplex Red (75 µM). The reactions were incubated at 37 °C for 30 min in a black opaque 96-well plate (Greiner) and fluorescence was measured in a microplate reader (Spectramax i3X, Molecular Devices) at 530 nm excitation and 580 emission.
# For CE determination, 150 µl of the assay buffer described above, supplemented with bovine liver catalase (45 U/ml) and cholesterol oxidase (1 U/ml), was added to 25 μl of sample and incubated overnight at 37 °C to deplete free cholesterol leaving only cholesterol esters. Then, 75 µl of cholesterol ester detection reagent (1 U/ml cholesterol oxidase, 4 U/ml cholesterol esterase, 24 U/ml horseradish peroxidase, 300 µM Amplex Red) was added. The reaction was incubated at 37 °C for 30 min and the fluorescence signal was measured as described above. Internal standards included samples containing 1 mM of cholesterol and 5 μM of cholesterol oleate in order to verify the completeness of the enzymatic decomposition of free cholesterol as well as assay sensitivity and specificity.
# [4] = Free fraction, rat; type: in vitro ADME; conditions: read-out: free fraction rat / man [%]
# [5] = 30 mg/Kg/day, 7 days after inj, 30 mg/kg/day
# [6] = 30 mg/Kg/day, 14 days after inj, 30 mg/kg/day
# [7] = 30 mg/Kg/day, 21 days after inj, 30 mg/kg/day
# [8] = 30 mg/Kg/day, 28 days after inj, 30 mg/kg/day
# [9] = 100 mg/Kg/day, 7 days after inj, 100 mg/kg/day
# [10] = 100 mg/Kg/day, 14 days after inj, 100 mg/kg/day
# [11] = 100 mg/Kg/day, 21 days after inj, 100 mg/kg/day
# [12] = 100 mg/Kg/day, 28 days after inj, 100 mg/kg/day
compound,measurement,setting,value
O=C(N[C@@H]1CCCC[C@H]1O)c1cnc(OCC(F)(F)F)c(-c2ccc(Cl)c(Cl)c2)c1 [Cpd G],"Glomerular ABCA1 mean fluorescence intensity, mean",[1]; 30mg/kg,13.76
same,"Number of Podocytes (WT1+ cells in glomeruli), mean",[1]; 30mg/kg,9.133
same,Glomerular ABCA1 mean fluorescence intensity,[1]; 30mg/kg,13.36 and 14.02 and 13.9
same,Number of Podocytes (WT1+ cells in glomeruli),[1]; 30mg/kg,11 and 9.6 and 6.8
same,"Glomerular ABCA1 mean fluorescence intensity, mean",[1]; 100mg/kg,20.2467
same,"Number of Podocytes (WT1+ cells in glomeruli), mean",[1]; 100mg/kg,14.8667
same,Glomerular ABCA1 mean fluorescence intensity,[1]; 100mg/kg,19.7 and 21.32 and 19.72
same,Number of Podocytes (WT1+ cells in glomeruli),[1]; 100mg/kg,15.4 and 14.2 and 15
same,ADR-induced glomerular degeneration with podocyte loss and loss of ABCA1 expression,[1]; immunofluorescence of renal cortex sections,prevented
same,ACR in pilot study,[2]; 30 mg/kg/day oral,to a lesser extent
same,ACR in pilot study,[2]; 100 mg/kg/day oral,significantly improved
same,Body Weight,"[2]; 30 mg/Kg/day, 0 days after inj, 30 mg/kg/day",20 grams and 18 grams and 19 grams (2×) and 23 grams
same,ACR in spot urine,[2]; [5],0.007 mg Albumin/ mg Creatinine in urine and 0.03 mg Albumin/ mg Creatinine in urine and 0.12 mg Albumin/ mg Creatinine in urine and 31.944 mg Albumin/ mg Creatinine in urine and 0.643 mg Albumin/ mg Creatinine in urine
same,Body Weight,[2]; [5],18 grams and 19 grams (3×) and 23 grams
same,ACR in spot urine,[2]; [6],51.688 mg Albumin/ mg Creatinine in urine and 33.252 mg Albumin/ mg Creatinine in urine and 84.069 mg Albumin/ mg Creatinine in urine and 36.836 mg Albumin/ mg Creatinine in urine and 5.571 mg Albumin/ mg Creatinine in urine
same,Body Weight,[2]; [6],18 grams and 19 grams (2×) and 16 grams and 23 grams
same,ACR in spot urine,[2]; [7],85.027 mg Albumin/ mg Creatinine in urine and 29.222 mg Albumin/ mg Creatinine in urine and 44.604 mg Albumin/ mg Creatinine in urine and 23.436 mg Albumin/ mg Creatinine in urine and 5.121 mg Albumin/ mg Creatinine in urine
same,Body Weight,[2]; [7],17 grams and 19 grams (2×) and 18 grams and 15 grams
same,ACR in spot urine,[2]; [8],34.615 mg Albumin/ mg Creatinine in urine and 3.13 mg Albumin/ mg Creatinine in urine and 6.059 mg Albumin/ mg Creatinine in urine and 7.143 mg Albumin/ mg Creatinine in urine and 2.473 mg Albumin/ mg Creatinine in urine
same,Body Weight,[2]; [8],16 grams and 20 grams (2×) and 17 grams and 15 grams
same,Body Weight,"[2]; 100 mg/Kg/day, 0 days after inj, 100 mg/kg/day",20 grams (3×) and 16 grams and 22 grams
same,ACR in spot urine,[2]; [9],0.061 mg Albumin/ mg Creatinine in urine and 0.016 mg Albumin/ mg Creatinine in urine and 0.015 mg Albumin/ mg Creatinine in urine and 0.233 mg Albumin/ mg Creatinine in urine and 9.666 mg Albumin/ mg Creatinine in urine
same,Body Weight,[2]; [9],19 grams (3×) and 16 grams and 22 grams
same,ACR in spot urine,[2]; [10],3.994 mg Albumin/ mg Creatinine in urine and 0.535 mg Albumin/ mg Creatinine in urine and 50.828 mg Albumin/ mg Creatinine in urine and 1.336 mg Albumin/ mg Creatinine in urine and 89.551 mg Albumin/ mg Creatinine in urine
same,Body Weight,[2]; [10],20 grams (2×) and 19 grams (2×) and 15 grams
same,ACR in spot urine,[2]; [11],0.238 mg Albumin/ mg Creatinine in urine and 0.124 mg Albumin/ mg Creatinine in urine and 0.794 mg Albumin/ mg Creatinine in urine and 8.14 mg Albumin/ mg Creatinine in urine
same,Body Weight,[2]; [11],20 grams (3×) and 15 grams and 19 grams
same,ACR in spot urine,[2]; [12],0.09 mg Albumin/ mg Creatinine in urine and 0.018 mg Albumin/ mg Creatinine in urine and 0.86 mg Albumin/ mg Creatinine in urine and 0.271 mg Albumin/ mg Creatinine in urine and 3.053 mg Albumin/ mg Creatinine in urine
same,Body Weight,[2]; [12],20 grams (2×) and 21 grams and 20.5 grams and 16 grams
same,KIDNEY CORTEX TOTAL CHOLESTEROL,"[3]; ADR model, individual animals",79.82 nmol Chol./mg protein and 76.54 nmol Chol./mg protein and 118.96 nmol Chol./mg protein and 209.77 nmol Chol./mg protein and 137.06 nmol Chol./mg protein and 201.43 nmol Chol./mg protein and 118.77 nmol Chol./mg protein and 118.29 nmol Chol./mg protein and 88.73 nmol Chol./mg protein and 117.18 nmol Chol./mg protein
same,KIDNEY CORTEX TRIGLYCERIDES,"[3]; ADR model, individual animals",45.04 nmol Triglyceride /mg protein and 65 nmol Triglyceride /mg protein and 36.98 nmol Triglyceride /mg protein and 31.32 nmol Triglyceride /mg protein and 30.95 nmol Triglyceride /mg protein and 56.24 nmol Triglyceride /mg protein and 28.95 nmol Triglyceride /mg protein and 62.65 nmol Triglyceride /mg protein and 57.76 nmol Triglyceride /mg protein
same,Cholesterol ester content in kidneys from individual animals,"[3]; ADR, day 28 of treatment, paired with ACR of same animal",0.13 nmol CE/mg and 0.19 nmol CE/mg and 0.14 nmol CE/mg and 0.15 nmol CE/mg and 0.03 nmol CE/mg and 0.01 nmol CE/mg and 0.17 nmol CE/mg
same,"Cholesterol esters in renal cortex, ADR model",[3]; Cpd G 28 days after ADR,reduced accumulation of cholesterol esters
same,"Renal CE content, Median","[3]; mice challenged with ADR, treated for 28 days, group median",0.975 nmol CE/ mg protein
same,"Renal CE content (cholesterol ester, normalized to total proteins in kidney cortexes)","[3]; mice challenged with ADR, treated for 28 days, individual animals",0.88 nmol CE/ mg protein and 1.16 nmol CE/ mg protein and 1.07 nmol CE/ mg protein and 1.59 nmol CE/ mg protein and 0.87 nmol CE/ mg protein and 0.53 nmol CE/ mg protein and 0.78 nmol CE/ mg protein and 0.58 nmol CE/ mg protein and 1.14 nmol CE/ mg protein and 1.47 nmol CE/ mg protein
same,fraction unbound,[4],< 0.01
